Test results as given in PMC4397911 (Bioorganic & medicinal chemistry letters, 2013).

Tests used:
[1] = target: NA from Virus H5N1 (soluble viral NA, N1) (Influenza A virus, UniProt Q6DPL2); experiment: biochemical; conditions: IC50 inhibition of soluble NA from Virus H5N1
[2] = target: NA from Virus H3N2 (soluble viral NA, N2) (Influenza A virus, UniProt Q91MA2); experiment: biochemical; conditions: IC50 inhibition of soluble NA from Virus H3N2
Chain of NA from Virus H3N2 (soluble viral NA, N2) (Q91MA2 31-469 limits assumed): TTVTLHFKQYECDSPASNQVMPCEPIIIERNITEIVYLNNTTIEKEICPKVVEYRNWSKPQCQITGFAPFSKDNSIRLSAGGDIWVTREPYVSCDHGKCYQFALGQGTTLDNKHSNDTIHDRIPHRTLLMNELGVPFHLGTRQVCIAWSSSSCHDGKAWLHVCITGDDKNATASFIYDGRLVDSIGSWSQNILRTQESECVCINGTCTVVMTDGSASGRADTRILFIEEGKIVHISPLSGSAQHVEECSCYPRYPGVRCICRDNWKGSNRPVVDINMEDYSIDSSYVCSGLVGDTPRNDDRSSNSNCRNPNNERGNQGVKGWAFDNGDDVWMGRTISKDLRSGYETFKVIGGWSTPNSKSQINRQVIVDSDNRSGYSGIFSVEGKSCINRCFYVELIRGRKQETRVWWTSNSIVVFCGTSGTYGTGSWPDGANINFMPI

Chain of NA from Virus H5N1 (soluble viral NA, N1) (Q6DPL2 35-449 limits assumed): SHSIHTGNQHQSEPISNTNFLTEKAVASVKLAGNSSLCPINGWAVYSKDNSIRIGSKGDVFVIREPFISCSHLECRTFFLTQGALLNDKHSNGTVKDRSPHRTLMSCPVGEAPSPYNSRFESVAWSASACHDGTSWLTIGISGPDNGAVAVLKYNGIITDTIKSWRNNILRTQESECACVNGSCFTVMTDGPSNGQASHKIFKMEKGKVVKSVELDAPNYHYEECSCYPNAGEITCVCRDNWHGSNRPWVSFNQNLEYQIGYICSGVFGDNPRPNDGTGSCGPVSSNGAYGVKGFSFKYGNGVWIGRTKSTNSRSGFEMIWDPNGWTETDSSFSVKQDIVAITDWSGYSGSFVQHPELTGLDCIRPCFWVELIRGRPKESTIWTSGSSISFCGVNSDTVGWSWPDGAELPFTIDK

SMILES | IC50 [1] | IC50 [2]
CC(=O)N[C@H]1[C@H]([C@H](O)[C@H](O)CO)OC(SCCCCCCS)(C(=O)O)C[C@@H]1N (stereo partly shown) [SA] | 60 to 180 µM | 60 to 180 µM
CC(=O)N[C@H]1[C@H]([C@H](O)[C@H](O)CO)OC(SCCOCCOCCOCCOCCOCCSC2(C(=O)O)C[C@H](N)[C@@H](NC(C)=O)[C@H]([C@H](O)[C@H](O)CO)O2)(C(=O)O)C[C@@H]1N (stereo partly shown) [HexaEG-SA] | 0.57 ± 0.06 µM | 11 ± 2 µM
CC(=O)N[C@H]1[C@H]([C@H](O)[C@H](O)CO)OC(SCCCCCCS)(C(=O)O)C[C@@H]1NC(=N)N (stereo partly shown) [SG] | 0.1 ± 0.02 µM | 
CC(=O)N[C@H]1[C@H]([C@H](O)[C@H](O)CO)OC(SCCOCCOCCOCCOCCSC2(C(=O)O)C[C@H](N)[C@@H](NC(C)=O)[C@H]([C@H](O)[C@H](O)CO)O2)(C(=O)O)C[C@@H]1N (stereo partly shown) [PentaEG-SA] | 1.1 ± 0.1 µM | 10 ± 2 µM
